Data from US5436253A, “Pyridonecarboxylic acid derivatives and mycotic infections” (Daiichi Pharmaceutical Co., Ltd., priority 1993, dated 1995).

Experiments:
Parameters in all cases: MIC Alone: unit not given beside the values
Settings in all cases: antimycotic agent alone
C. albicans = tested on: C. albicans
Cryptococcus = tested on: Cryptococcus
Blastomyces dermatitidis = tested on: Blastomyces dermatitidis

Structure (SMILES) | MLC Alone (C. albicans) | MIC Alone (Cryptococcus) | MIC Alone (Blastomyces dermatitidis) | MIC Alone (C. albicans) | MLC Alone (Cryptococcus) | MLC Alone (Blastomyces dermatitidis)
C[C@@H]1[C@H](O)[C@@H](C)/C=C/C=C/C=C/C=C/C=C/C=C/C=C/[C@H](O[C@@H]2O[C@H](C)[C@@H](O)[C@H](N)[C@@H]2O)C[C@@H]2O[C@](O)(C[C@@H](O)C[C@@H](O)[C@H](O)CC[C@@H](O)C[C@@H](O)CC(=O)O[C@H]1C)C[C@H](O)[C@H]2C(=O)O [AMB, amphotericin B] | > 4.62 | 0.29 | 0.29 |  |  | 
OC(Cn1cncn1)(Cn1cncn1)c1ccc(F)cc1F [FLU, fluconazole] |  | 10 | 10 | 2.5 |  | 
Clc1ccc(COC(Cn2ccnc2)c2ccc(Cl)cc2Cl)c(Cl)c1 (stereo not drawn) [MON, miconazole] |  |  |  | 1.25 | 5 | 5
